Data: patent US20040110802A1, “Antibacterial benzoic acid derivatives” (priority 2002, published 2004)
≈ marks a conversion by molar mass, not a printed value.

Tested on: SAUR 9218
Assay: MIC Test Method, standard agar dilution
Type: cell-based
Details: agar dilution, Mueller Hinton agar, incubated overnight at 35° C.; lowest concentration that inhibits visible growth; read-out: SAUR 9218 MIC
Experimental: The in vitro MiCs of test compounds were determined by a standard agar dilution method. A stock drug solution of each analog was prepared in the preferred solvent, usually DMSO:H2O (1:3). Serial 2-fold dilutions of each sample are made using 1.0 ml aliquots of sterile distil]ed water. To each 1.0 ml aliquot of drug was added 9 ml of molten Mueller Hinton agar medium. The drug-supplemented agar was mixed, poured into 15×100 mm petri dishes, and allowed to solidify and dry prior to inoculation.
Vials of each of the test organisms are maintained frozen in the vapor phase of a liquid nitrogen freezer. Test cultures are grown overnight at 35° C. on the medium appropriate for the organism. Colonies are harvested with a sterile swab, and cell suspensions are prepared in Trypticase Soy broth (TSB) to equal the turbidity of a 0.5 McFamland standard. A 1:20 dilution of each suspension was made in TSB. The plates containing the drug supplemented agar are inoculated with a 0.001 ml drop of the cell suspension using a Steers replicator, yielding approximately 10^4 to 10^5 cells per spot. The plates are incubated overnight at 35° C.
Following incubation the Minimum Inhibitory Concentration (MIC μg/ml), the lowest concentration of drug that inhibits visible growth of the organism, was read and recorded.

| Compound | MIC [µg/mL] |
| --- | --- |
| O=C(Nc1ccc(Br)cc1C(=O)O)c1csc(S(=O)(=O)N2CC3CC2CN3Cc2ccccc2)c1 (stereo not drawn) | > 128 |
| O=C(Nc1ccc(I)cc1C(=O)O)c1cc(-c2ccccc2)on1 | 1 (≈ 2.3 µM) |
| N#Cc1ccc(NC(=O)c2cnc(SCc3ccccc3)cn2)c(C(=O)O)c1 | 0.125 (≈ 0.32 µM) |
| CC(=O)c1ccc(N2CCN(S(=O)(=O)c3cc(C(=O)Nc4ccc(C#N)cc4C(=O)O)sc3C)CC2)cc1 | 16 (≈ 29 µM) |
| O=C(Nc1ccc(O)cc1C(=O)O)c1cc(-c2ccccc2Br)on1 | 0.125 (≈ 0.31 µM) |
| CCCCCn1c(C(=O)Nc2ccc(Cl)cc2C(=O)O)cc2ccccc21 | 4 (≈ 10.4 µM) |
| Cn1c(C(=O)Nc2ccc(C#N)cc2C(=O)O)cc2cccc(OCC3CCC3)c21 | 0.125 (≈ 0.31 µM) |
| Cc1sc(C(=O)Nc2ccc(C#N)cc2C(=O)O)cc1S(=O)(=O)N1CCCC1 | 16 (≈ 38.1 µM) |
| N#Cc1ccc(NC(=O)c2noc3cc(-c4ccccc4)ccc23)c(C(=O)O)c1 | 0.125 (≈ 0.326 µM) |
| CC(C)Sc1ccc(C(=O)Nc2ccc(Br)cc2C(=O)O)cn1 | 1 (≈ 2.53 µM) |
| O=C(O)c1cc(Cl)ccc1NC(=O)c1cc2ccccc2n1CCCc1ccccc1 | 4 (≈ 9.24 µM) |
| Cc1sc(C(=O)Nc2ccc(C#N)cc2C(=O)O)cc1S(=O)(=O)N1CC(C)CC(C)C1 (stereo not drawn) | 16 (≈ 34.7 µM) |
| N#Cc1ccc(NC(=O)c2cncc(-c3cnc4ccccc4c3)c2)c(C(=O)O)c1 | > 128 |
| Cc1sc(C(=O)Nc2ccc(C#N)cc2C(=O)O)cc1S(=O)(=O)N(C)CCC(O)c1ccccc1 (stereo not drawn) | 64 (≈ 125 µM) |
| N#Cc1ccc(NC(=O)c2cc3cccc(NC(=O)c4ccccc4)c3[nH]2)c(C(=O)O)c1 | 2 (≈ 4.71 µM) |
| N#Cc1ccc(NC(=O)c2cc3cccc(N)c3[nH]2)c(C(=O)O)c1 | 1 (≈ 3.12 µM) |
| Cc1sc(C(=O)Nc2ccc(C#N)cc2C(=O)O)cc1S(=O)(=O)N1CCN(Cc2ccccc2)CC1 | > 128 |
| O=C(Nc1ccc(Br)cc1C(=O)O)c1cc(-c2ccc(C(F)(F)F)cc2)on1 | 1 (≈ 2.2 µM) |
| Cn1c(C(=O)Nc2ccc(C#N)cc2C(=O)O)cc2ccc(Br)c(N)c21 | 0.5 (≈ 1.21 µM) |
| CCOCC(O)COc1cccc2cc(C(=O)Nc3ccc(C#N)cc3C(=O)O)n(C)c12 (stereo not drawn) | 0.25 (≈ 0.571 µM) |

| Compound | MIC [µg/mL] |
| --- | --- |
| Cn1c(C(=O)Nc2ccc(C#N)cc2C(=O)O)cc2ccc(NC(=O)c3ccco3)cc21 | 2 (≈ 4.67 µM) |
| CC(=O)Nc1ccc2cc(C(=O)Nc3ccc(C#N)cc3C(=O)O)n(C)c2c1 | 1 (≈ 2.66 µM) |
| Cc1sc(C(=O)Nc2ccc(C#N)cc2C(=O)O)cc1S(=O)(=O)N(Cc1ccccc1)C(C)C | 32 (≈ 64.3 µM) |
| O=C(Nc1ccc(Br)cc1C(=O)O)c1ccc(Br)o1 | 64 (≈ 165 µM) |
| CC(C)n1c(C(=O)Nc2ccc(Br)cc2C(=O)O)cc2ccccc21 | 4 (≈ 9.97 µM) |
| CCC(C(=O)Nc1cccc2cc(C(=O)Nc3ccc(C#N)cc3C(=O)O)[nH]c12)c1ccccc1 (stereo not drawn) | 0.5 (≈ 1.07 µM) |
| Cn1c(C(=O)Nc2ccc(C#N)cc2C(=O)O)cc2cccc(OCC3COc4ccccc4O3)c21 (stereo not drawn) | 0.125 (≈ 0.259 µM) |
| CS(=O)(=O)N(c1ccc2onc(C(=O)Nc3ccc(C#N)cc3C(=O)O)c2c1)S(C)(=O)=O | 0.125 (≈ 0.261 µM) |
| COCC(C)Oc1ccccc1-c1cc(C(=O)Nc2ccc(C#N)cc2C(=O)O)no1 (stereo not drawn) | 0.25 (≈ 0.593 µM) |
| N#Cc1ccc(NC(=O)c2cc3cccc(NC(=O)Cc4ccc5ccccc5c4)c3[nH]2)c(C(=O)O)c1 | 0.25 (≈ 0.512 µM) |
| Cc1c(S(=O)(=O)Nc2ccc(N3CCOCC3)cc2)csc1C(=O)Nc1ccc(Br)cc1C(=O)O | 64 (≈ 110 µM) |
| CC(C)Oc1cccc2cc(C(=O)Nc3ccc(C#N)cc3C(=O)O)n(C)c12 | 0.125 (≈ 0.331 µM) |
| N#Cc1ccc(NC(=O)c2cc(-c3ccccc3OCC3CCCCO3)on2)c(C(=O)O)c1 (stereo not drawn) | 2 (≈ 4.47 µM) |
| CCCCCNC(=O)Nc1ccc2cc(C(=O)Nc3ccc(C#N)cc3C(=O)O)n(C)c2c1 | 0.5 (≈ 1.12 µM) |
| CS(=O)(=O)Nc1ccc2c(C(=O)Nc3ccc(C#N)cc3C(=O)O)noc2c1 | 2 (≈ 5 µM) |
| CC(=O)OCCCCSc1ccc(C(=O)Nc2ccc(C#N)cc2C(=O)O)cn1 | 0.25 (≈ 0.605 µM) |
| N#Cc1ccc(NC(=O)c2cc(-c3ccccc3Oc3ccccc3-c3ccccc3)on2)c(C(=O)O)c1 | > 128 |
| CCSc1ccc(C(=O)Nc2ccc(C#N)cc2C(=O)O)cn1.Cl | 0.5 |
| COCCn1c(C(=O)Nc2ccc(Br)cc2C(=O)O)cc2ccccc21 | 16 (≈ 38.3 µM) |
